In patent US9969758B2, “Antimicrobial compounds” (BIOMERIEUX, priority 2014, dated 2018):
Read-outs that look alike come from different tables or passages of the source.

What was measured:
Assay in all cases: MIC by agar dilution
[1] = test system: K. pneumoniae (87); assay type: cell-based, Klebsiella pneumoniae; settings: K. pneumoniae (87)
Excerpt: (§1) Bacterial isolates. […] These included Citrobacter freundii (n=5), other species of Citrobacter (n=4), Enterobacter aerogenes (n=1), Enterobacter cloacae (n=27), Escherichia coli (n=53), Klebsiella oxytoca (n=5), Klebsiella pneumoniae (n=87), Kluyvera spp (n=1), Proteus mirabilis (n=8), Providencia rettgeri (n=2), Salmonella spp (n=3), and Serratia marcescens (n=1). Among these 197 isolates, there were 128 (65%) carbapenemase producers, including; 87 with NDM-1, 9 with IMP, 11 with KPC, 14 with OXA-48 and 7 with VIM. The majority of the carbapenemase producers jointly produced broad-spectrum β-lactamases (BSBL) or cephalosporinases (AmpC β-lactamases), but the latter are not documented for the sake of clarity.
(§2) Determining the minimum inhibitory concentrations (MIC). All the MICs were determined using an agar dilution method. This required use of a medium without a defined antagonist (peptone-free), prepared as described previously with the inclusion of 2% horse blood lysed with saponin, 25.0 μg/mL of NAD and 25.0 μg/mL of hemin [17]. The compounds tested were dissolved in sterile deionised water and incorporated into the agar medium in a concentration range of 0.0031 to 8.0 μg/mL (0.016 to 32 μg/mL for gram-positive bacteria). All the isolates were prepared at a density equivalent to 0.5 McFarland units in sterile deionised water using a densitometer (approximately 1.5×10^8 CFU/mL), and then diluted to 1 for 15. An aliquot of 1 μL of each diluted suspension was then placed onto plates with a multispot inoculator to give the final recommended inoculation of 10 000 CFU/spot. The MICs of fosfomycin were determined by the same method, except that the IsoSensitest medium (Oxoid, Basingstoke, United Kingdom) was used, plus 25.0 μg/mL of glucose-6-phosphate (Sigma, Poole, United Kingdom) and an extended range of fosfomycin concentrations. All the dishes (including the antimicrobial-free controls) were incubated for 22 hours at 37° C. All the tests were performed on at least two independent replicates in order to examine the reproducibility.

[2] = test system: E. faecalis (11); assay type: cell-based, Enterococcus faecalis; settings: E. faecalis (11)
Excerpt: (§3) A collection of 50 isolates of Staphylococci aureus included 36 strains of methicillin-resistant S. aureus (MRSA) frequently encountered in Europe, including strains isolated in Belgium, Finland, France, Germany and the United Kingdom. Another strain of MRSA, NCTC 11939, was included as a control, as well as a methicillin-sensitive control (NCTC 6571). Twelve other isolates of methicillin-sensitive Staphylococcus aureus (MSSA) recently collected from blood cultures were also included. Finally, 50 isolates of enterococci included two control strains (Enterococcus faecalis NCTC 755 and Enterococcus faecium NCTC 7171) and 48 isolates originating from clinical samples obtained from at least three different hospitals. The clinical isolates included E. faecalis (n=10), E. faecium (n=33), Enterococcus casseliflavus (n=3), Enterococcus gallinarum (n=2).
as §2

[3] = test system: Enterobacteriaceae with a broad-spectrum β-lactamase; assay type: cell-based; settings: BSBL (47)
Excerpt: as §1, §2

[4] = test system: Enterobacteriaceae (197); assay type: cell-based; settings: Enterobacteriaceae (197)
Excerpt: as §1, §2

[5] = test system: carbapenemase-producing Enterobacteriaceae; assay type: cell-based
Excerpt: as §1, §2

[6] = test system: All S. aureus (50); assay type: cell-based, Staphylococcus aureus; settings: All S. aureus (50)
Excerpt: as §3, §2

[7] = test system: AmpC (22); assay type: cell-based, Enterobacteriaceae
Excerpt: as §1, §2

[8] = test system: E. coli (53); assay type: cell-based, Escherichia coli; settings: E. coli (53)
Excerpt: as §1, §2

[9] = test system: E. faecium (34); assay type: cell-based, Enterococcus faecium
Excerpt: as §3, §2

[10] = test system: All Enterococci (50); assay type: cell-based
Excerpt: as §3, §2

[11] = test system: methicillin-sensitive Staphylococcus aureus; assay type: cell-based; settings: MSSA (13)
Excerpt: as §3, §2

[12] = test system: glycopeptide-resistant enterococci; assay type: cell-based; settings: GRE (43)
Excerpt: as §3, §2

[13] = test system: methicillin-resistant Staphylococcus aureus; assay type: cell-based; settings: MRSA (37)
Excerpt: as §3, §2

[14] = test system: E. cloacae (27); assay type: cell-based, Enterobacter cloacae; settings: E. cloacae (27)
Excerpt: as §1, §2

[15] = read-out: Modal MIC (most frequent MIC)
[16] = Staphylococcus aureus, read-out: MIC50
[17] = Staphylococcus aureus, read-out: MIC90
[18] = Staphylococcus aureus, read-out: Modal MIC (most frequent MIC)

C[C@H](N)C(=O)N[C@@H](C)C(=O)N[C@@H](C)P(=O)(O)O [Di-alanyl fosfalin, L-alanyl-L-alanyl-L-1-aminoethylphosphonic acid]
0.5 to 32 µg/mL: MIC Range [6] | MIC Range [11] | MIC Range [13]
0.031 µg/mL: Modal MIC (most frequent MIC) [2]
≤0.016-4 ^ μg/mL: MIC Range ([9]; E. faecium (34))
256 times: MICs lower than those of alafosfalin, in certain cases ([10]; enterococci)
2 µg/mL: MIC90 [8] | MIC90 ([9]; E. faecium (34)) | MIC90 ([10]; All Enterococci (50))
16 µg/mL: MIC90 [6] | MIC90 [11] | Modal MIC (most frequent MIC) [11] | MIC90 [13]
0.5 µg/mL: MIC90 [2] | MIC50 [8] | MIC50 ([9]; E. faecium (34)) | Modal MIC (most frequent MIC) ([9]; E. faecium (34)) | MIC50 ([10]; All Enterococci (50)) | Modal MIC (most frequent MIC) ([10]; All Enterococci (50)) | MIC50 [12] | Modal MIC (most frequent MIC) [12]
0.25 µg/mL: Modal MIC (most frequent MIC) [8]
8 µg/mL: MIC50 [3] | MIC50 [4] | MIC50 ([5]; CPE (128)) | MIC50 [6] | MIC50 [11] | MIC50 [13]
4 µg/mL: Modal MIC (most frequent MIC) [6] | concentration by which all isolates were inhibited ([9]; 34 E. faecium isolates (including 31 vancomycin-resistant)) | Modal MIC (most frequent MIC) [13] | Modal MIC (most frequent MIC) [14]
~16 times: MICs lower than those of alafosfalin, on average ([10]; enterococci)
0.063 µg/mL: MIC50 [2]
>8 µg/mL: MIC50 [1] | MIC90 [1] | Modal MIC (most frequent MIC) [1] | MIC90 [3] | Modal MIC (most frequent MIC) [3] | MIC90 [4] | Modal MIC (most frequent MIC) [4] | MIC90 ([5]; CPE (128)) | Modal MIC (most frequent MIC) ([5]; CPE (128)) | MIC50 ([7]; AmpC (22)) | MIC90 ([7]; AmpC (22)) | Modal MIC (most frequent MIC) ([7]; AmpC (22)) | MIC50 [14] | MIC90 [14]
>32 µg/mL: MIC90 [12]

C[C@@H]1O[C@@H]1P(=O)(O)O [Fosfomycin, disodium [(2R,3S)-3-methyloxiran-2-yl] phosphonate]
16 µg/mL: MIC [5, 15] | MIC90 [6, 17] | MIC90 [11, 17] | MIC90 [13, 17] | MIC50 ([14]; Enterobacter cloacae, read-out: MIC50) | MIC ([14]; Enterobacter cloacae, read-out: Modal MIC (most frequent MIC))
0.125 to 8 µg/mL: MIC Range [8]
> 32 µg/mL: MIC90 ([1]; Klebsiella pneumoniae, read-out: MIC90) | MIC90 ([2]; Enterococcus faecalis, read-out: MIC90) | MIC90 ([3]; read-out: MIC90) | MIC [3, 15] | MIC90 ([4]; read-out: MIC90) | MIC90 [7] | MIC50 ([9]; Enterococcus faecium, E. faecium (34), read-out: MIC50) | MIC90 ([9]; Enterococcus faecium, E. faecium (34), read-out: MIC90) | MIC ([9]; Enterococcus faecium, E. faecium (34), read-out: Modal MIC (most frequent MIC)) | MIC50 ([10]; All Enterococci (50), read-out: MIC50) | MIC90 ([10]; All Enterococci (50), read-out: MIC90) | MIC ([10]; All Enterococci (50), read-out: Modal MIC (most frequent MIC)) | MIC50 ([12]; read-out: MIC50) | MIC90 ([12]; read-out: MIC90) | MIC [12, 15]
2 to 16 µg/mL: MIC Range [11]
1 µg/mL: MIC90 ([8]; Escherichia coli, read-out: MIC90)
4 µg/mL: MIC ([1]; Klebsiella pneumoniae, read-out: Modal MIC (most frequent MIC)) | MIC50 ([4]; read-out: MIC50) | MIC [4, 15] | MIC50 [5] | MIC50 [6, 16] | MIC50 [11, 16] | MIC [11, 18] | MIC50 [13, 16]
32 µg/mL: MIC50 ([2]; Enterococcus faecalis, read-out: MIC50) | MIC ([2]; Enterococcus faecalis, read-out: Modal MIC (most frequent MIC)) | MIC90 [5] | MIC [7, 15] | MIC90 ([14]; Enterobacter cloacae, read-out: MIC90)
0.5 µg/mL: MIC50 ([8]; Escherichia coli, read-out: MIC50) | MIC ([8]; Escherichia coli, read-out: Modal MIC (most frequent MIC))
8 µg/mL: MIC50 ([1]; Klebsiella pneumoniae, read-out: MIC50) | MIC50 ([3]; read-out: MIC50) | MIC [6, 18] | MIC [13, 18]
